In patent publication US4887995A, “Method of treating sickle cell anemia” (University of Pittsburgh, priority 1985, dated 1989):

Tests used:
[1] = test system: sickle hemoglobin (HbS); experiment: solubility assay: ability of a compound to increase solubility of sickle hemoglobin; type: biochemical; settings: low concentrations (5 mM.); the higher the ratio the higher the activity; compared with DiClBz and p-BrBz
Text: In comparative tests which we reported in J. of Med. Chem., 1984, 27, 103-105, which is incorporated herein by reference, ethacrynic acid was compared with active agents (1) [(3,4-dichlorobenzyl)oxy]acetic acid (DiClBz2) and (2) [(p-bromobenzyl)oxy]acetic acid (p-BrBz). The solubility assay measures the ability of a compound to increase solubility of sickle hemoglobin (HbS). […] The higher the ratio the higher the activity of the compound.

[2] = test system: HbS; experiment: chromatographic separation for covalent binding to HbS
[3] = test system: erythrocyte membranes; experiment: transport across erythrocyte membranes; type: in vitro ADME

## C=C(CC)C(=O)c1ccc(OCC(=O)O)c(Cl)c1Cl [ethacrynic acid]
[1]
  solubility ratio: higher solubility ratio than DiClBz and p-BrBz
[2]
  covalent binding between HbS and compound: desired tight covalent binding between the HbS and ethacrynic acid had occurred
[3]
  ability to cross the red blood cell membrane and react with hemoglobin: confirmed the ability of ethacrynic acid to cross the red blood cell membrane and react with hemoglobin
